From US11478474B2, “2-(3′-(hydroxymethyl)-1-methyl-5-((5-(2-methyl-4-(oxetan-3-yl)piperazin-1-yl)pyridin-2-yl)amino)-6-oxo-1,6-dihydro-[3,4′-bipyridin]-2′-yl)-7,7-dimethyl-7,8-dihydro-2H-cyclopenta[4,5]pyrrolo[1,2-a]pyrazin-1(6H)-one as a BTK inhibitor” (HUTCHISON MEDIPHARMA LIMITED, priority 2020, dated 2022)

How the values were obtained:
BTK recombinant protein = BTK recombinant protein (Homo sapiens (Human), UniProt Q06187); experiment: Determination of biochemical BTK (Z'-LYTE kinase assay)
BTK recombinant protein, sequence (Q06187 whole entry): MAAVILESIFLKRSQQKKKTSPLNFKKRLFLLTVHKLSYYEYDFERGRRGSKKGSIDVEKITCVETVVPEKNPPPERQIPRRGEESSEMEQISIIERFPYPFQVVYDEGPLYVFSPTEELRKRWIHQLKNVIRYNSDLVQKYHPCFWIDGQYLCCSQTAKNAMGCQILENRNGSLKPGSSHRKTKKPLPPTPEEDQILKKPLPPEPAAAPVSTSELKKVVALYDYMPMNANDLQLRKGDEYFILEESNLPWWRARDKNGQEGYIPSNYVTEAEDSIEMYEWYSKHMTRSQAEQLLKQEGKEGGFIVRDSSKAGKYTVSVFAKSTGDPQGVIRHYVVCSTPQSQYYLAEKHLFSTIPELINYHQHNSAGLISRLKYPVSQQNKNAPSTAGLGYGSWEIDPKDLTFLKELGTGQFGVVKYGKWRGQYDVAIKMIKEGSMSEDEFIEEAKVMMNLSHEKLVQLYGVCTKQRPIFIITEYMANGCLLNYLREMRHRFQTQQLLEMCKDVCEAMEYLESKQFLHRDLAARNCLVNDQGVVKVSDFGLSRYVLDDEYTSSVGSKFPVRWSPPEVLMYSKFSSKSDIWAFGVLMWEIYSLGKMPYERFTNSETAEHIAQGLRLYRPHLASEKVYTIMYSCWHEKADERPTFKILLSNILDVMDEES
How it was run: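 Human BTK recombinant kinase (3.32 nM final) was preincubated with compound for 30 min at 4 °C. Reaction ran 1 h at room temperature with Tyr01 FRET peptide (2 μM) and ATP (32 μM); development protease then added. Coumarin 445 nm/fluorescein 520 nm emission ratio (400 nm excitation) gave inhibition across 8 concentrations, 3000–1.37 nM.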

[1] = tested on: B cell activation in rat whole blood; experiment: Determination of B cell activity in whole blood of rats (anti-rat IgD induced B cell activation, flow cytometry); assay type: cell-based; details: anti-rat immunoglobulin D 10 μg/mL, 18 hours, inhibition of B cell activation
Method: Example 4 Determination of B Cell Activity in Whole Blood of Rats
1. Reagents and Materials
Peripheral whole blood of female Wistar rats;
In the determination of the compound activity, the collected peripheral whole blood of rat was added to a 96 well plate at 80 μL/well and cultured in a 5% CO2, 37° C. cell incubator. After half an hour, the test compound was diluted with PBS in a 3-fold gradient to the corresponding concentrations, and then the diluted test compound with different concentrations was added to the culture system of rat whole blood at 10 μL/well (the final concentration of the test compound was 1.0, 0.33, 0.11, 0.037, 0.012, 0.0041, 0.0014, and 0.0005 μM, the final concentration of DMSO was 0.3%, double replicate wells), or the control solution (0.3% DMSO, 6 replicate wells) was added to the corresponding well at 10 μL/well, which were incubated in the cell incubator for one hour. Then 10 μL/well of anti-rat immunoglobulin D diluted in PBS (the final concentration was 10 μg/mL) was add to the treating wells of the test compound and control wells for anti-rat immunoglobulin D, or 10 μL/well of PBS was added to the negative control wells, which were mixed well to continue the culture in a 5% CO2, 37° C. cell incubator, and incubated for 18 hours.
On the second day, the 96-well plates were taken out and the flow cytometry antibody mixture (the final concentration of anti-rat B220PE antibody was 1 μg/mL and the final concentration of anti-rat CD86 FITC antibody was 1 μg/mL) diluted with PBS was added to each well of plate, which were incubated for 30 minutes in the dark, and then 50 μL of blood from each well was pipetted to the freshly prepared 500 μL of lysis buffer to lyse red blood cells. The plates were shaken for 20 minutes, centrifuged to remove the supernatant, then washed, fixed, and detected on a flow cytometer.
The B cell activation in the sample was determined by flow dyeing method.
The average value of the proportion of activated B cells in the wells with anti-rat immunoglobulin D but without the test compound was used as the control treating well for anti-rat immunoglobulin D, and the average value of the proportion of activated B cells in the wells without immunoglobulin D stimulation and without the test compound was used as the negative control treating well. According to the B cell activation ratio in each well, the inhibition ratio (%) of each concentration was calculated, and then the IC50 value was obtained by using the 205 model in XL-Fit 5.3 software (ID Business Solutions Limited).
The inhibition ratio is calculated as follows: inhibition ratio (%)=100%−{(treating well for the test compound−negative control treating well)/(control treating well for anti-rat immunoglobulin D−negative control treating well)}×100%, wherein,
Treating well for the test compound: represents the B cell activation ratio in rat whole blood treated with anti-rat immunoglobulin D and the test compound.
Control treating well for anti-rat immunoglobulin D: represents the B cell activation ratio in rat whole blood treated with anti-rat immunoglobulin D but without the test compound.
Negative control treating well: represents the B cell activation ratio in rat whole blood without the test compound and without immunoglobulin stimulation.
Through the above-mentioned test, the compound of the present invention has a potency to inhibit B cell activation in rat whole blood.

[2] = biological target: phosphorylated BTK in Ramos cells (Homo sapiens (Human), UniProt Q06187); experiment: Determination of phosphorylated BTK in Ramos cells (BTK phospho-Y223 HTRF); assay type: cell-based; details: anti-human IgM + hydrogen peroxide stimulation
phosphorylated BTK in Ramos cells, sequence (Q06187 whole entry): as above
How it was run: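 BTK Y223 phosphorylation measured by HTRF (665/615 nm) in lysates of Ramos cells. Cells were serum-starved 2 h, exposed to compound for 1 h (final 0.00018–3.0 μM, 0.3% DMSO), then stimulated 10 min with 10 μg/mL anti-IgM and 3.3 mM H2O2. IC50 derived from percent inhibition between unstimulated and stimulated controls.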

| Compound | IC50 (BTK recombinant protein) | IC50 [1] | IC50 [2] |
| --- | --- | --- | --- |
| CC1(C)Cc2cc3c(=O)n(-c4nccc(-c5cc(Nc6cc7n(n6)CCN(C6COC6)C7)c6ncnn6c5)c4CO)ccn3c2C1 [Compound 13] | – | 5 nM | 1 nM |
| CN1CCn2nc(Nc3cc(-c4ccnc(-n5ccn6c7c(cc6c5=O)CC(C)(C)C7)c4CO)cn4ncnc34)cc2C1 [Compound 16] | – | 8 nM | 2 nM |
| CC1(C)Cc2cc3c(=O)n(-c4nccc(-c5cc(Nc6cc7n(n6)CCNC7)c6ncnn6c5)c4CO)ccn3c2C1 [Compound 17] | – | 26 nM | 4 nM |
| C[C@H]1CN(C2COC2)CCN1c1ccc(Nc2nc(-c3ccnc(-n4ccn5c6c(cc5c4=O)CC(C)(C)C6)c3CO)cn(C)c2=O)nc1 [Compound 20] | – | 462 nM | 17 nM |
| CCn1cc(Nc2cc(-c3ccnc(-n4ccn5c6c(cc5c4=O)CC(C)(C)C6)c3CO)cn(C)c2=O)nn1 [Compound 24] | – | 85 nM | 14 nM |
| CCn1cc(Nc2cc(-c3ccnc(-n4ccn5c6c(cc5c4=O)CC(C)(C)C6)c3CO)nn(C)c2=O)nn1 [Compound 25] | – | 29 nM | 24 nM |
| CCn1cc(Nc2cc(-c3ccnc(-n4ncn5c6c(cc5c4=O)CC(C)(C)C6)c3CO)cn3ncnc23)nn1 [Compound 208] | 4 nM | – | 4 nM |
| CCn1cc(-c2ccnc(-n3ccn4c5c(cc4c3=O)CC(C)(C)C5)c2CO)cc(Nc2ccc(N3CCOC[C@@H]3C)nn2)c1=O [Compound 214] | 31 nM | – | 24 nM |
| C[C@H]1CN(C2COC2)CCN1c1ccc(Nc2cc(-c3cncc(-n4ccn5c6c(cc5c4=O)CC(C)(C)C6)c3CO)cn(C)c2=O)nc1 [Compound 216] | 11 nM | – | 7 nM |
| CC[C@H]1CN(C2COC2)CCN1c1ccc(Nc2cc(-c3ccnc(-n4ccn5c6c(cc5c4=O)CC(C)(C)C6)c3CO)cn(C)c2=O)nn1 [Compound 217] | 8 nM | – | 10 nM |
| C[C@@H]1CN(c2ccc(Nc3cc(-c4ccnc(-n5ccn6c7c(c(F)c6c5=O)CCCC7)c4CO)cn(C)c3=O)nc2)[C@@H](C)CN1C1COC1 [Compound 218] | 6 nM | – | 12 nM |
| COCCN1CCN(c2ccc(Nc3cc(-c4ccnc(-n5ncn6c7c(cc6c5=O)CC(C)(C)C7)c4CO)cn(C)c3=O)nc2)C(C)(C)C1 [Compound 220] | 5 nM | – | 16 nM |
| Cn1cc(-c2ccnc(-n3ccn4c5c(cc4c3=O)CC(C)(C)C5)c2CO)cc(Nc2ccc(N3CCN(C4COC4)CC3)nn2)c1=O [Compound 222] | 8 nM | – | 8 nM |
| CC[C@H]1CN(C2COC2)CCN1c1ccc(Nc2cc(-c3ccnc(-n4ncn5c6c(cc5c4=O)CC(C)(C)C6)c3CO)cn(C)c2=O)nc1 [Compound 224] | 9 nM | – | 7 nM |
| Cn1cc(-c2ccnc(-n3ccn4c5c(c(F)c4c3=O)CCCC5)c2CO)cc(Nc2ccc(N3CCN(C4COC4)CC3(C)C)cn2)c1=O [Compound 225] | 11 nM | – | 9 nM |
| COCCN1CCN(c2ccc(Nc3cc(-c4ccnc(-n5ccn6c7c(cc6c5=O)CC(C)(C)C7)c4CO)cn(C)c3=O)nc2)C(C)(C)C1 [Compound 226] | 17 nM | – | 11 nM |
| CC[C@H]1CN(C2COC2)CCN1c1ccc(Nc2cc(-c3ccnc(-n4ccn5c6c(c(F)c5c4=O)CCCC6)c3CO)cn(C)c2=O)nc1 [Compound 227] | 8 nM | – | 5 nM |
| COCc1c(-c2cc(Nc3ccc(N4CCN(C5COC5)C[C@@H]4C)cn3)c(=O)n(C)c2)ccnc1-n1ccn2c3c(cc2c1=O)CC(C)(C)C3 [Compound 228] | 171 nM | – | 139 nM |
| Cn1cc(-c2ccnc(-n3ccn4c5c(cc4c3=O)CC(C)(C)C5)c2CO)cc(Nc2ccc(N3CCC4(CC3)COC4)cn2)c1=O [Compound 229] | 12 nM | – | 10 nM |
| Cn1cc(-c2ccnc(-n3ccn4c5c(cc4c3=O)CC(C)(C)C5)c2CO)cc(Nc2ccc(N3CCN(C4COC4)CC34CC4)cn2)c1=O [Compound 231] | 5 nM | – | 4 nM |
| Cn1cc(-c2ccnc(-n3ccn4c5c(cc4c3=O)CC(C)(C)C5)c2CO)cc(Nc2ccc(N3CCC4(CCOC4)CC3)cn2)c1=O [Compound 233] | 40 nM | – | 8 nM |
| Cn1cc(-c2ccnc(-n3ccn4c5c(cc4c3=O)CC(C)(C)C5)c2CO)cc(Nc2ccc(N3C4CC3CN(C3COC3)C4)cn2)c1=O [Compound 235] | 22 nM | – | 13 nM |

Next, values leading:

| IC50 (BTK recombinant protein) | IC50 [1] | IC50 [2] | Compound |
| --- | --- | --- | --- |
| 9 nM | 2 nM | – | C[C@@H]1CN(c2ccc(Nc3cc(-c4ccnc(-n5ccn6c7c(cc6c5=O)CC(C)(C)C7)c4CO)nn(C)c3=O)nc2)[C@@H](C)CN1C1COC1 [Compound 5] |
| 15 nM | – | 15 nM | C[C@@H]1CN(c2ccc(Nc3cc(-c4ccnc(-n5ccn6c7c(cc6c5=O)CC(C)(C)C7)c4CO)cn(C)c3=O)nn2)[C@@H](C)CN1C1COC1 [Compound 205] |
| 13 nM | – | 7 nM | COCCN1CCN(c2ccc(Nc3cc(-c4ccnc(-n5ncn6c7c(cc6c5=O)CC(C)(C)C7)c4CO)cn(C)c3=O)nc2)[C@@H](C)C1 [Compound 206] |
| 11 nM | – | 8 nM | COCCN1C[C@H](C)N(c2ccc(Nc3cc(-c4ccnc(-n5ncn6c7c(cc6c5=O)CC(C)(C)C7)c4CO)cn(C)c3=O)nc2)C[C@H]1C [Compound 207] |
| 11 nM | – | 5 nM | C[C@@H]1CN(c2ccc(Nc3cc(-c4ccnc(-n5ncn6c7c(cc6c5=O)CC(C)(C)C7)c4CO)cn(C)c3=O)nn2)[C@@H](C)CN1C1COC1 [Compound 209] |
| 21 nM | – | 19 nM | CCn1cc(-c2ccnc(-n3ncn4c5c(cc4c3=O)CC(C)(C)C5)c2CO)cc(Nc2ccc(N3C[C@@H](C)N(C4COC4)C[C@@H]3C)cn2)c1=O [Compound 210] |
| 17 nM | – | 20 nM | CCn1cc(-c2ccnc(-n3ncn4c5c(cc4c3=O)CC(C)(C)C5)c2CO)cc(Nc2ccc(N3CCN(C4COC4)C[C@@H]3C)cn2)c1=O [Compound 211] |
| 10 nM | – | 11 nM | C[C@H]1COCCN1c1ccc(Nc2cc(-c3ccnc(-n4ncn5c6c(cc5c4=O)CC(C)(C)C6)c3CO)cn(C)c2=O)nn1 [Compound 212] |
| 15 nM | – | 15 nM | C[C@H]1CN(C2COC2)CCN1c1ccc(Nc2cc(-c3ccnc(-n4ncn5c6c(cc5c4=O)CC(C)(C)C6)c3CO)cn(C)c2=O)nn1 [Compound 213] |
| 31 nM | – | 51 nM | CCn1cc(-c2ccnc(-n3ccn4c5c(cc4c3=O)CC(C)(C)C5)c2CO)cc(Nc2ccc(N3C[C@@H](C)N(C4COC4)C[C@@H]3C)cn2)c1=O [Compound 215] |
| 8 nM | – | 12 nM | C[C@@H]1CN(c2ccc(Nc3cc(-c4ccnc(-n5ncn6c7c(c(F)c6c5=O)CCCC7)c4CO)cn(C)c3=O)nc2)[C@@H](C)CN1C1COC1 [Compound 221] |
| 29 nM | – | 20 nM | Cn1cc(-c2ccnc(-n3ccn4c5c(cc4c3=O)CC(C)(C)C5)c2CO)cc(Nc2ccc(N3C[C@@H]4C[C@H]3CN4C3COC3)cn2)c1=O [Compound 230] |
| 32 nM | – | 10 nM | C[C@@H]1[C@H](C)N(c2ccc(Nc3cc(-c4ccnc(-n5ccn6c7c(cc6c5=O)CC(C)(C)C7)c4CO)cn(C)c3=O)nc2)CCN1C1COC1 [Compound 234] |
